# Experimental data reported in patent US20120322813A1, “RUTAECARPINE DERIVATIVES FOR TREATING CAFFEINE TOXICITY” (priority 2011, published 2012).
# Test system: CYP1A2
# Experiment: MEROD assay in live Hepa1c1c7 cells incubated with test compound (CYP1A2 induction)
# Assay type: cell-based, mouse
# Details: live Hepa1c1c7 cells incubated with 10 μM compound
# From the text: FIG. 1 illustrates how caffeine is primarily metabolized to paraxanthine via CYP1A2 enzyme in a human, according to some embodiments. The MEROD (methoxyresorufin-O-demethylase) assay measures the activity of the enzyme (CYP1A2) that converts methoxyresorufin (probe substrate) to resorufin (demethylation) in the presence of NADPH. The resulting resorufin concentration can be measured using a fluorescence reader by setting the excitation and emission wavelengths at 544 and 590 nm, respectively.
# For MEROD assay in live cells, Hepa1c1c7 cells were cultured in either 6-well or 24-well-plates. For the 24-well plate experiment, after confluent cells were incubated for approximately 20 hours with either resorufin, nitro-resorufin, chloro-resorufin, 3-MC or DMSO (in triplicates), culture media was removed and 180 μL fresh culture media containing […] methoxyresorufin was added per well. After 1 hour incubation at 37° C., […] aliquot was taken from each well and the formation of resorufin was measured by fluorescence. […] After 5 hours incubation at 37° C., 100 μL aliquot was taken from each well, centrifuged at 12,000 g at RT for ˜5 min and the supernatants were placed into wells of a 96-well fluorescence plate and the formation of resorufin was measured by fluorescence.
smiles,measurement,value
O=c1c2ccc(Cl)cc2nc2n1CCc1c-2[nH]c2ccccc12 [chloro-rutaecarpine],formation of resorufin (MEROD),no marked difference
